In the test the test system is 565726-208-R1-J5-PDC complex spheroids, growth inhibition. In words: Anticancer human tumor 565726-208-R1-J5-PDC patient-derived pancreatic adenocarcinoma cell line growth inhibition [RAS]. The following applies: for viability, T/C: stronger effect = lower value. The text has this: RAS pathway inhibitors in Combinations in Complex Spheroids
A high-throughput screen of multi-cell type tumor spheroids was designed to identify active combinations of RAS pathway inhibitors and targeted small molecules. Complex spheroids include a stromal component modeled by human endothelial cells (HUVEC) and fibroblasts modeled by human mesenchymal stem cells (MSCs). The concentration ranges selected for each drug and investigational agent were based upon clinically achievable concentrations if the clinical Cmax of the agent was known.
Compounds. The drugs and investigational agents: abemaciclib (NSC768073), cobimetinib (NSC768068), divarasib (GDC6063, NSC841802), docetaxel (NSC628503), GDC-1971 (RLY-1971, NSC841576), gemcitabine (NSC613327), inavolisib (NSC800729), ipatasertib (NSC767898), KB-0742 (NSC834161), MRTX-1133 (NSC836407), osimertinib (NSC779217), RMC-4630 (NSC839698), RMC-6236 (NSC851965), RMC-6291 (NSC852671), Ro-3306 (NSC812927), sapanisertib (NSC764658), SN-38 (NSC673596), staurosporine (NSC755774), SY5609 (NSC837396), and tovorafenib (DAY101, NSC766906), were obtained from the National Cancer Institute (NCI) Developmental Therapeutics Program Chemical Repository. The FDA-approved anticancer drug set is available from the NCI Developmental Therapeutics Program. […] The stock solutions were prepared in dimethyl sulfoxide (DMSO, Sigma-Aldrich, St. Louis, MO, cat. D2650) at 800-fold the tested concentration and stored at -70 degrees C prior to their use. All drugs and investigational agents were tested over a range starting from a high concentration at or near the clinical Cmax and decreasing in half-log increments. If the clinical Cmax for an agent had not been determined, the highest concentration tested was 10 microM.
Cell Culture. All cells were maintained in an incubator at 37 degrees C and 5% CO2 with 95% humidity. The PDC lines were cultured according to standard operating procedures established by the NCI PDMR. All PDCs were thawed and cultured in Matrigel-coated flasks prepared with a working solution of 1X Ham's F-12 nutrient mix, without supplementation (Invitrogen, Waltham, MA, cat. 11765054), 100 U/mL penicillin-streptomycin (Invitrogen, cat. 15140122), and 2.5% Matrigel (Corning Inc., Corning, NY, cat. 354248) for the first three passages. The 362531-283-R-J2-PDC and 782815-120-R-J1-PDC lines were cultured in 6C/Colon 1B media, which includes advanced DMEM/F-12 (Thermo Fisher Scientific, cat. 12634028), 10 mM HEPES (Thermo Fisher Scientific, cat. 15630080), 1X GlutaMAX supplement (Thermo Fisher Scientific, cat. 35050061), 0.1 mg/mL primocin (InvivoGen, San Diego, CA, cat. ant-pm-2), 10% defined fetal bovine serum, heat inactivated (HyClone Laboratories Inc., Logan, UT, cat. SH30070.03HI), 50% L-WRN conditioned media (ATCC, cat. CRL-3276), 1.25 mM N-Acetyl-L-cysteine (Sigma-Aldrich, cat. A9165), 10 mM nicotinamide (Sigma-Aldrich, cat. N0636), 1X B-27 supplement (Thermo Fisher Scientific, cat. 17504044), 1X N-2 supplement (Thermo Fisher Scientific, cat. 17502048), 50 ng/mL human EGF (Thermo Fisher Scientific, cat. PHG0311), and 10 microM Y-27632 dihydrochloride (Tocris Bioscience, cat. 1254). The K12877-001-R-J1-PDC line was cultured in 6I media, which includes all 6C/Colon 1B media plus 10 ng/mL human FGF-10 (PeproTech, cat. 100-26), 1 ng/mL human FGF-2 (PeproTech, cat. 100-18B), 1 µM prostaglandin E2 (Tocris Bioscience, cat. 2296), […] hydrocortisone (Sigma-Aldrich, cat. H4001), and […] bovine insulin (Sigma-Aldrich, cat. I6634). The K86415-001-R-J1-PDC line was cultured in 6D media, which includes all 6C/Colon 1B media components minus the L-WRN conditioned media. The 485176-168-R4-J1-PDC was cultured in PANC media, which includes all 6C/Colon 1B media plus 100 ng/mL human FGF-10 (PeproTech, cat. 100-26), 500 nM SB-431542 (Selleckchem, cat. S1067), and 10 nM gastrin (Tocris Bioscience, cat. 3006). […]

The structures appear in SMILES notation.
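Also: spheroids exposed to compounds for seven days before readout.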

Broadly, the IC50 is the concentration that inhibits the measured activity by half. One may read the viability, T/C as the result in the treated group divided by that in the control group, in per cent. As for `CCC(CC)c1cc(NC2CCC(N)C2)n2nccc2n1` (configuration not stated) + CCn1c(-c2cc(N3CCN(C)CC3)cnc2C(C)OC)c2c3cc(ccc31)-c1csc(n1)CC(NC(=O)C1CC1C)C(=O)N1CCCC(N1)C(=O)OCC(C)(C)C2, the IC50 reads like this: (curve of first compound, second compound 0.000949 µM) 507 nM; (curve of first compound, second compound 0.003 µM) 340 nM; (curve of first compound, second compound 0.00949 µM) less than 31.6 nM; (curve of first compound, second compound 0.03 µM) less than 31.6 nM; (curve of first compound, second compound 0.0949 µM) less than 31.6 nM; (curve of first compound, second compound 0.3 µM) less than 31.6 nM. Further, the viability, T/C is 61.1% (second compound 0.000949 µM, first compound 0.0316 µM); 60% (second compound 0.000949 µM, first compound 0.1 µM); 65.7% (second compound 0.000949 µM, first compound 0.316 µM); 32.4% (second compound 0.000949 µM, first compound 1 µM); 0.45% (second compound 0.000949 µM, first compound 3.16 µM); 1.67% (second compound 0.000949 µM, first compound 10 µM). The viability, T/C by setting is: (second compound 0.003 µM, first compound 0.0316 µM) 56.6%; (second compound 0.003 µM, first compound 0.1 µM) 51.5%; (second compound 0.003 µM, first compound 0.316 µM) 50%; (second compound 0.003 µM, first compound 1 µM) 27.7%; (second compound 0.003 µM, first compound 3.16 µM) 0.47%; (second compound 0.003 µM, first compound 10 µM) 1.59%. Besides, the viability, T/C is, setting by setting: (second compound 0.00949 µM, first compound 0.0316 µM) 47.2%; (second compound 0.00949 µM, first compound 0.1 µM) 38.9%; (second compound 0.00949 µM, first compound 0.316 µM) 34%; (second compound 0.00949 µM, first compound 1 µM) 24.6%; (second compound 0.00949 µM, first compound 3.16 µM) 0.24%; (second compound 0.00949 µM, first compound 10 µM) 2.02%. Moreover, the viability, T/C runs as follows: (second compound 0.03 µM, first compound 0.0316 µM) 31.3%; (second compound 0.03 µM, first compound 0.1 µM) 36.5%; (second compound 0.03 µM, first compound 0.316 µM) 31%; (second compound 0.03 µM, first compound 1 µM) 20.2%; (second compound 0.03 µM, first compound 3.16 µM) 0.4%; (second compound 0.03 µM, first compound 10 µM) 1.85%. The viability, T/C was 27.4% (second compound 0.0949 µM, first compound 0.0316 µM); 27% (second compound 0.0949 µM, first compound 0.1 µM); 24.2% (second compound 0.0949 µM, first compound 0.316 µM); 16.8% (second compound 0.0949 µM, first compound 1 µM); 0.44% (second compound 0.0949 µM, first compound 3.16 µM); 1.98% (second compound 0.0949 µM, first compound 10 µM). In addition, the viability, T/C runs as follows: (second compound 0.3 µM, first compound 0.0316 µM) 23.5%; (second compound 0.3 µM, first compound 0.1 µM) 27.1%; (second compound 0.3 µM, first compound 0.316 µM) 23.1%; (second compound 0.3 µM, first compound 1 µM) 13.9%; (second compound 0.3 µM, first compound 3.16 µM) 0.5%; (second compound 0.3 µM, first compound 10 µM) 1.9%.

Turning to `CC1(O)CCCC1n1c(=O)c(C(F)F)cc2cnc(NC3CCN(S(C)(=O)=O)CC3)nc21` (configuration not stated), the viability, T/C reads like this: (compound 0.0316 µM) 86.8% [middle of 4 runs]; (compound 0.1 µM) 71.2% [middle of 4 runs]; (compound 1 µM) 71.2% [middle of 4 runs]; (compound 10 µM) 5.9% [middle of 4 runs]. Besides, the IC50 (curve of compound) is 4.5 µM [middle of 4 runs].

The values are drawn from PubChem BioAssay AID2060899 (Molecular Pharmacology Branch, DTP, NCI, 2025).
